Experimental data as given in patent EP0054589B1, “Organic phosphoric acid ester derivatives, a process for preparing the same and insecticidal, miticidal or nematocidal compositions containing the same” (priority 1980, dated 1982).

What was measured:
diamond back moth = assay: Insecticidal effect on diamond-back moth (cabbage leaf dip); assay type: in vivo, Plutella xylostella; conditions: 100 ppm, after 72 hours, 25°C
Method in brief: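 Cabbage leaves dipped 10 s in water-diluted emulsifiable concentrate at set concentration, air-dried; thirty 3rd-instar diamond-back moth larvae per cup held at 25°C. Percent mortality scored after 72 h, three replicates per treatment.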

carmine mites = assay: Miticidal effect on carmine mite (sprayed kidney bean seedling); assay type: in vivo, Tetranychus cinnabarius; conditions: 500 ppm
Experimental: An emulsifiable concentrate prepared as described in Formulation Example 1 and diluted to a predetermined concentration was sprayed using a spray-gun on a seedling of a kidney bean placed in a pot of 12 cm in diameter to which plant carmine mites were parasitic. After drying in air, seedlings were kept in a green house, and the number of living insects was recorded on the 7th, 14th, 21st and 28th day from the day of application to determine the control effects. Three pots were used for each treatment. The control effect was assessed by the following formula: [formula] • wherein Σ indicates sum and Cb, Tb, Cai and Tai have the following meanings. • Cb: Number of living mites in non-treated sample before application. • Tb: Number of living mites in treated sample before application. • Cai: Number of living mites in non-treated sample 7th, 14th, 21 st or 28th day from the application. • Tai: Number of living mites in treated sample 7th, 14th, 21st or 28th day from the application.

smaller tea tortrix = assay: Insecticidal effect on smaller tea tortrix (apple leaf dip); assay type: in vivo; conditions: Adoxophyes orana, foliar; Table 9; 100 ppm; after 72 hours, 25°C; wettable powder as Formulation Example 5; read-out: Percent Mortality
Experimental: Leaves of an apple tree were dipped into a dilute water suspension of a wettable powder prepared as described in Formulation Example 5. After drying in air, the leaves were charged in a 60 ml volume cup made of vinyl chloride resin, and […] 3rd-instar larvae of smaller tea tortrix were put in each cup. The cups were capped and kept at 25°C. After 72 hours, the number of the surviving insects and the dead insects were recorded to determine percent mortality. In each treatment, 3 cups and 30 insects were used in total.

Cucumber = assay: Phytotoxicity on various crops; assay type: in vivo; set-up: key: Symbol — indicates that no toxicity was observed; conditions: 500 ppm sprayed; checked visually after 10 days
Method in brief: (§1)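 Plants were sprayed with an aqueous dilution of an emulsifiable concentrate at 500 ppm of active ingredient, then kept under greenhouse conditions. Injury was assessed by eye ten days later.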

Cabbage = assay: Phytotoxicity on various crops; assay type: in vivo; set-up: key: Symbol — indicates that no toxicity was observed; conditions: 500 ppm sprayed; checked visually after 10 days
Method in brief: as §1

Apple = assay: Phytotoxicity on various crops; assay type: in vivo; set-up: key: Symbol — indicates that no toxicity was observed; conditions: 500 ppm sprayed; checked visually after 10 days
Method in brief: as §1

Tea = assay: Phytotoxicity on various crops; assay type: in vivo; set-up: key: Symbol — indicates that no toxicity was observed; conditions: 500 ppm sprayed; checked visually after 10 days
Method in brief: as §1

Cotton = assay: Phytotoxicity on various crops; assay type: in vivo; set-up: key: Symbol — indicates that no toxicity was observed; conditions: 500 ppm sprayed; checked visually after 10 days
Method in brief: as §1

Tomato = assay: Phytotoxicity on various crops; assay type: in vivo; set-up: key: Symbol — indicates that no toxicity was observed; conditions: 500 ppm sprayed; checked visually after 10 days
Method in brief: as §1

Rice = assay: Phytotoxicity on various crops; assay type: in vivo; set-up: key: Symbol — indicates that no toxicity was observed; conditions: 500 ppm sprayed; checked visually after 10 days
Method in brief: as §1

egg plant = assay: Phytotoxicity on various crops; assay type: in vivo; set-up: key: Symbol — indicates that no toxicity was observed; conditions: 500 ppm sprayed; checked visually after 10 days
Method in brief: as §1

Green Pepper = assay: Phytotoxicity on various crops; assay type: in vivo; set-up: key: Symbol — indicates that no toxicity was observed; conditions: 500 ppm sprayed; checked visually after 10 days
Method in brief: as §1

Kidney Bean = assay: Phytotoxicity on various crops; assay type: in vivo; set-up: key: Symbol — indicates that no toxicity was observed; conditions: 500 ppm sprayed; checked visually after 10 days
Method in brief: as §1

Beet = assay: Phytotoxicity on various crops; assay type: in vivo; set-up: key: Symbol — indicates that no toxicity was observed; conditions: 500 ppm sprayed; checked visually after 10 days
Method in brief: as §1

[1] = Table 7, emulsifiable concentrate as Formulation Example 1

## CCCSP(=O)(OC)Oc1ccc2c(c1)OC(C)=CC2(C)C (stereo not shown) [Compound No. 1]
Diamond back moth; [1]
  Percent Mortality (%): 100%
Carmine mites
  Control Effect (%): 99.6%
  Number of Living Mites after Application 7th Day: 0
  Number of Living Mites after Application 14th Day: 0
  Number of Living Mites after Application 21st Day: 0
  Number of Living Mites after Application 28th Day: 3
Smaller tea tortrix
  mortality at 100 ppm: 100%
Cucumber
  Phytotoxicity: Cucumber: —
Cabbage
  Phytotoxicity: Cabbage: —
Apple
  Phytotoxicity: Apple: —
Tea
  Phytotoxicity: Tea: —
Cotton
  Phytotoxicity: Cotton: —
Tomato
  Phytotoxicity: Tomato: —
Rice
  Phytotoxicity: Rice: —
Egg plant
  Phytotoxicity: Egg Plant: —
Green Pepper
  Phytotoxicity: Green Pepper: —
Kidney Bean
  Phytotoxicity: Kidney Bean: —
Beet
  Phytotoxicity: Beet: —

## CCCSP(=O)(OCC)Oc1ccc2c(c1)OC(C)=CC2(C)C (stereo not shown) [Compound No. 2, O-ethyl-S-propyl-O-(2,4,4-trimethyl-1,4-benzopyran-7-yl)phosphorothioate]
Diamond back moth; [1]
  Percent Mortality (%): 100%
Carmine mites
  Control Effect (%): 99.0%
  Number of Living Mites after Application 7th Day: 0
  Number of Living Mites after Application 14th Day: 0
  Number of Living Mites after Application 21st Day: 0
  Number of Living Mites after Application 28th Day: 11
Smaller tea tortrix
  mortality at 100 ppm: 100%
Cucumber
  Phytotoxicity: Cucumber: —
Cabbage
  Phytotoxicity: Cabbage: —
Apple
  Phytotoxicity: Apple: —
Tea
  Phytotoxicity: Tea: —
Cotton
  Phytotoxicity: Cotton: —
Tomato
  Phytotoxicity: Tomato: —
Rice
  Phytotoxicity: Rice: —
Egg plant
  Phytotoxicity: Egg Plant: —
Green Pepper
  Phytotoxicity: Green Pepper: —
Kidney Bean
  Phytotoxicity: Kidney Bean: —
Beet
  Phytotoxicity: Beet: —

## CCCSP(=S)(OC)Oc1ccc2c(c1)OC(C)=CC2(C)C (stereo not shown) [Compound No. 9, 0-methyl-S-propyl-(2,4,4-trimethyl-1,4-benzopyran-7-yl)phosphorodithioate]
Diamond back moth; [1]
  Percent Mortality (%): 100%
Carmine mites
  Control Effect (%): 99.0%
  Number of Living Mites after Application 7th Day: 0
  Number of Living Mites after Application 14th Day: 0
  Number of Living Mites after Application 21st Day: 0
  Number of Living Mites after Application 28th Day: 8
Smaller tea tortrix
  mortality at 100 ppm: 100%
Cucumber
  Phytotoxicity: Cucumber: —
Cabbage
  Phytotoxicity: Cabbage: —
Apple
  Phytotoxicity: Apple: —
Tea
  Phytotoxicity: Tea: —
Cotton
  Phytotoxicity: Cotton: —
Tomato
  Phytotoxicity: Tomato: —
Rice
  Phytotoxicity: Rice: —
Egg plant
  Phytotoxicity: Egg Plant: —
Green Pepper
  Phytotoxicity: Green Pepper: —
Kidney Bean
  Phytotoxicity: Kidney Bean: —
Beet
  Phytotoxicity: Beet: —

## CCCSP(=S)(OCC)Oc1ccc2c(c1)OC(C)=CC2(C)C (stereo not shown) [Compound No. 10]
Diamond back moth; [1]
  Percent Mortality (%): 100%
Carmine mites
  Control Effect (%): 97.6%
  Number of Living Mites after Application 7th Day: 0
  Number of Living Mites after Application 14th Day: 0
  Number of Living Mites after Application 21st Day: 2
  Number of Living Mites after Application 28th Day: 19
Smaller tea tortrix
  mortality at 100 ppm: 96.7%
Cucumber
  Phytotoxicity: Cucumber: —
Cabbage
  Phytotoxicity: Cabbage: —
Apple
  Phytotoxicity: Apple: —
Tea
  Phytotoxicity: Tea: —
Cotton
  Phytotoxicity: Cotton: —
Tomato
  Phytotoxicity: Tomato: —
Rice
  Phytotoxicity: Rice: —
Egg plant
  Phytotoxicity: Egg Plant: —
Green Pepper
  Phytotoxicity: Green Pepper: —
Kidney Bean
  Phytotoxicity: Kidney Bean: —
Beet
  Phytotoxicity: Beet: —

## CCCSP(=O)(OCC)Oc1ccc2c(c1)OC(C)(C)C=C2C (stereo not shown) [Compound No. 20, O-ethyl-S-propyl-0-(2,2,4-trimethyl-1,2-benzopyran-7-yl)phosphorothioate]
Diamond back moth; [1]
  Percent Mortality (%): 100%
Diamond back moth; Table 8, emulsifiable concentrate as Formulation Example 4
  Percent Mortality (%): 100%
Cucumber
  Phytotoxicity: Cucumber: —
Cabbage
  Phytotoxicity: Cabbage: —
Apple
  Phytotoxicity: Apple: —
Tea
  Phytotoxicity: Tea: —
Cotton
  Phytotoxicity: Cotton: —
Tomato
  Phytotoxicity: Tomato: —
Rice
  Phytotoxicity: Rice: —
Egg plant
  Phytotoxicity: Egg Plant: —
Green Pepper
  Phytotoxicity: Green Pepper: —
Kidney Bean
  Phytotoxicity: Kidney Bean: —
Beet
  Phytotoxicity: Beet: —
